± gives the expanded uncertainty stated by the source.
Tests used:
[1] = refractive index (Na D-line) (dimensionless); conditions: 293.15 K; 101.33 kPa; Liquid; Standard Abbe refractometry
[2] = for mass density: 293.15 K, 101.33 kPa, Liquid
[3] = Molar enthalpy of transition or fusion; conditions: Crystal; DSC

refractive index [1] | Molar enthalpy of transition or fusion [3] | Normal melting temperature ([2]; Crystal, DTA) | mass density [2] | SMILES | mass density ([2]; Vibrating tube method)
1.4065 ± 0.0007 | – | – | – | CCOCCO [2-ethoxyethan-1-ol] | 929 ± 1 kg/m3
– | 8.91 ± 0.239 kcal/mol | 214.60 ± 0.5 °C | – | O=P(c1ccccc1)(c1ccccc1)c1cc(O)ccc1O [(2,5-dihydroxyphenyl)diphenyl phosphine oxide] | –
1.366 ± 0.0007 | – | – | – | CCO [ethanol] | 790 ± 1 kg/m3

The next lines start with the compound.

SMILES | refractive index [1] | Molar enthalpy of transition or fusion [3] | Normal melting temperature ([2]; Crystal, DTA) | mass density [2] | mass density ([2]; Vibrating tube method)
CC(C)=O [acetone] | 1.359 ± 0.0007 | – | – | – | 790 ± 1 kg/m3
CO [methanol] | 1.3301 ± 0.0007 | – | – | 792 ± 1 kg/m3 | –
Cc1ccccc1 [toluene] | 1.4967 ± 0.0007 | – | – | – | 866 ± 1 kg/m3

From the NIST ThermoML archive (doi:10.1021/je900730w)
